Experimental data as given in patent US20250188079A1, “INHIBITING CYCLIC AMP-RESPONSIVE ELEMENT-BINDING PROTEIN (CREB)” (Forma Therapeutics, Inc., priority 2019, published 2025).

What follows are molecules tested against CBP (Homo sapiens (Human), UniProt Q92793) (assay: HTRF biochemical assay for CBP activity (TR-FRET, bromodomain)). Settings: geometric mean, 10-point 3-fold dilution 33 μM to 1.7 nM, read-out: BROMO IC50 TRF TB CBP (μM gmean).
Sequence of CBP (Q92793 1085-1192): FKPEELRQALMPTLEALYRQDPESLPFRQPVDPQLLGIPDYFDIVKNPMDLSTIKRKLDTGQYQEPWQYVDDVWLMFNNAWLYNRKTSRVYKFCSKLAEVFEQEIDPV
Assay type: binding
How it was run: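 Compounds were tested as 10-point, 3-fold dilutions (33 μM to 1.7 nM final) against CBP protein and peptide ligand in pH 7.5 Hepes buffer with GSH, BGG, BSA and Triton X-100 at room temperature for varying times. The TR-FRET 520/490 ratio gave % inhibition versus no-enzyme and DMSO controls, and IC50 came from 4-parameter logistic fits.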
Molecule `COC(=O)N1CCc2ccc3c(nc(-c4ccc(CC(=O)O)cc4)n3[C@@H](C)Cc3ccccc3)c2C1` [Compound 78] has an IC50 of 0.001 to 0.01 µM. For `COC(=O)N1CCc2ccc3c(nc([C@H]4CC[C@H](C(=O)O)CC4)n3[C@H](C)Cc3c(C)cccc3C)c2C1` [Compound 318], the IC50 was 0.1 to 1 µM. `COC(=O)N1CCc2ccc3c(nc(C4CCCCC4)n3CC[C@@H]3CCCC[C@@H]3C(=O)O)c2C1` [Compound 219] gave an IC50 of 0.01 to 0.1 µM. `COC(=O)N1CCc2ccc3c(nc(C4CCN(S(C)(=O)=O)CC4)n3[C@H](C)Cc3cccc(C(=O)O)c3)c2C1` [Compound 331] was tested, and the IC50 was 0.1 to 1 µM. `COC(=O)N1CCc2ccc3c(nc(N4CCC[C@@H](C(=O)O)C4)n3[C@@H](C)Cc3ccccc3)c2C1` [Compound 82] was tested, and the IC50 was 0.001 to 0.01 µM. `COC(=O)N1CCc2ccc3c(nc([C@H]4CC[C@H](C(=O)O)CC4)n3[C@@H](C)CC3CCOCC3)c2C1` [Compound 188] showed an IC50 of 0.01 to 0.1 µM. For `COC(=O)N1CCc2ccc3c(nc(C4CCCCC4)n3C[C@](C)(C(=O)O)c3ccccc3)c2C1` [Compound 135], the IC50 was 0.001 to 0.01 µM. `COC(=O)N1CCc2ccc3c(nc([C@H]4CC[C@H](C(=O)O)CC4)n3[C@@H](C)C[C@H]3CC[C@H](OC)CC3)c2C1` [Compound 202] gave an IC50 of 0.01 to 0.1 µM. With `COC(=O)N1CCc2ccc3c(nc([C@H]4CCC[C@H](C(=O)O)C4)n3C[C@H]3CC[C@@H](OC)CC3)c2C1` [Compound 245] the IC50 was 0.01 to 0.1 µM. `COC(=O)N1CCc2ccc3c(nc(N4CCC[C@@H](C(=O)O)C4)n3C[C@@H](C)c3ccccc3)c2C1` [Compound 165] was tested, and the IC50 was 0.001 to 0.01 µM. Work on `COC(=O)N1CCc2ccc3c(nc(N4CCC(C(=O)O)CC4)n3[C@H](C)Cc3ccccc3)c2C1` (single isomer, unassigned) [Compound 325] yielded an IC50 of 0.1 to 1 µM. In the case of `COC(=O)N1CCc2ccc3c(nc([C@H]4CC[C@H](C(=O)O)CC4)n3[C@@H](C)Cc3ccc(C)c(F)c3)c2C1` (single isomer, unassigned) [Compound 2], the IC50 is reported as 0.001 to 0.01 µM. `COC(=O)N1CCc2ccc3c(nc([C@H]4CC[C@@H](C(=O)O)CC4)n3[C@@H](C)Cn3cc(Cl)cn3)c2C1` [Compound 264] was tested, and the IC50 was 0.01 to 0.1 µM. `COC(=O)N1CCc2ccc3c(nc([C@@H]4CCC[C@@H](C(=O)O)C4)n3Cc3cccc(OC)n3)c2C1` [Compound 272] was tested, and the IC50 was 0.01 to 0.1 µM. `COC(=O)N1CCc2ccc3c(nc([C@H]4CCC[C@H](C(=O)O)C4)n3Cc3cccc(Cl)n3)c2C1` [Compound 225] showed an IC50 of 0.01 to 0.1 µM. `COC(=O)N1CCc2c(Cl)cc3c(nc([C@H]4CC[C@H](C(=O)O)CC4)n3[C@H](C)Cc3ccccc3)c2C1` [Compound 305] gave an IC50 of 0.1 to 1 µM.
